Experimental data published in PMC10269895 (Microbiology Spectrum, 2023).
≈ marks a conversion by molar mass, not a printed value. Read-outs that look alike come from different tables or passages of the source.

Key:
[1] = Chemical stability in the presence of GSH; assay type: physicochemical; details: incubation for 168 h
Description: Based on a stock solution of 0.2 mg GE81112A in 1,548 μL methanol, three different samples were prepared in triplets (test mixture: 100 μL stock solution, 2 μL DMSO, and 1 μL DMSO containing 1.5 GSH equivalents; reference sample A: 200 μL stock solution; reference sample B: 200 μL stock solution and 2 μL DMSO). All samples were measured at three different time points (0 h, 24 h, and 168 h) on a MaXis II system (Bruker).

Plasma stability = assay type: in vitro ADME; details: for Degradation: after 4 h
Description: For plasma clearance, peptides were dissolved as 1 mM stock solutions in sterile deionized water and incubated at 37°C in 500 μL plasma derived from different species (human, mouse, and rat) at a final concentration of 5 μM. At different time points (0, 1, and 4 h), 100-μL samples were transferred to 500 μL ethanol containing 0.5% (vol/vol) ammonia, and plasma proteins were precipitated for 20 min at 1,735 × g. Each 10-μL supernatant sample was separated on a Triart C18 column (1.9 μm, 20 by 2 mm; YMC, Kyoto, Japan) with an ascending acetonitrile gradient in water (supplemented with 0.1% formic acid), at a flow rate of 500 μL/min. Samples were analyzed in triplicate by LC-MS/MS as above, and the stability of the parent peptides was evaluated based on the comparison of blank samples with incubated samples.

CYP3A4 = target: T1, CYP3A4 (Homo sapiens, UniProt P08684); experiment: CYP inhibition IC50 shift assay in human liver microsomes; assay type: in vitro ADME; details: concentrations of up to 50 μM
T1 construct: the reaction mixture was prepared with a human liver microsome concentration of 0.1 mg/mL; from tissue; host or cells: human liver microsomes
T1 sequence (P08684 whole entry): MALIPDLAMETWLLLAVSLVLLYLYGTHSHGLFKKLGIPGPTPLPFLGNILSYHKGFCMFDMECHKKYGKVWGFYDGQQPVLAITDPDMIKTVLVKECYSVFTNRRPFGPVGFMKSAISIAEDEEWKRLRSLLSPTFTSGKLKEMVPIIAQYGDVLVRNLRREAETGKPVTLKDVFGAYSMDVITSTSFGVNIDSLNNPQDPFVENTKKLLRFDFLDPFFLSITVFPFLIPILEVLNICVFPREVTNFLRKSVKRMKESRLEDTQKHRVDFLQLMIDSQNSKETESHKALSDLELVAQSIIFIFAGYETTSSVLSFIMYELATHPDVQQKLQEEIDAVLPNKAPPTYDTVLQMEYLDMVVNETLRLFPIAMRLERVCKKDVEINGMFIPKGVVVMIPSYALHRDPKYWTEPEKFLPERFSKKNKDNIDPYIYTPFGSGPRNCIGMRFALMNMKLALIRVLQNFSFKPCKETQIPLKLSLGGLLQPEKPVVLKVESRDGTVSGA
Description: To examine the potential for time-dependent and direct competitive CYP3A4 inhibition, the reaction mixture was prepared with a human liver microsome concentration of 0.1 mg/mL. GE81112A was added to final concentrations of 50, 25, 10, 5, 2, 0.4, and 0.08 μM. Mixtures were brought to 37°C, with the addition of an NADPH-generating system (EDTA, 1 mM; MgCl2, 3 mM; β-NADPH, 1 mM; glucose 6-phosphate, 5 mM final concentration) in water to one set of reaction mixtures and water to a second set of reaction mixtures. The reaction mixtures were preincubated for 45 min. A CYP isoform-selective substrate (3 μM midazolam or 50 μM testosterone) was added to the reaction mixtures, and NADPH was added to the second set of reaction mixtures for an additional 10-min incubation period. The reactions were stopped by the addition of 200 μL internal standard solution in acetonitrile.
Both incubation plates (for midazolam and testosterone) were centrifuged at 3,000 rpm for 10 min. The samples were analyzed using LC-MS/MS. Parallel analysis of the CYP3A4 substrate midazolam and the CYP3A4 substrate testosterone was performed. The calculations of 50% inhibitory concentration (IC50) values and IC50 shift values were performed by using 4-paratemeter curve fitting.

P. mirabilis DSM4479 = test system: P. mirabilis DSM4479
Description: (§1) MICs were determined by adapting the protocol from CLSI guidelines (Table 1; [15]). Briefly, from an overnight preculture, 49.2 μL of an inoculum of 5 × 10^5 CFU/mL in MH broth or DMEM was dispensed into 384-well plates, and 0.8 μL of compounds solubilized in dimethyl sulfoxide (DMSO) and serially diluted was added to the bacterial cultures. […] MICs were determined by measurement of the optical density at 600 nm (OD600). The experiments were performed in duplicate. Commercially available strains were obtained from the American Type Culture Collection (ATCC), the German Collection of Microorganisms and Cell Cultures (DSMZ), and the Biological Resource Center of Institut Pasteur (CRBIP).

P. stuartii ATCC 29851 = test system: P. stuartii ATCC 29851
Description: as §1

E. coli ATCC BAA-2469 = details: NDM-1 strain
Description: as §1

C. freundii ATCC 8090 = test system: C. freundii ATCC 8090
Description: as §1

E. coli ATCC BAA-2471 = details: NDM-1 strain
Description: as §1

E. coli MG1655 = test system: E. coli MG1655
Description: as §1

[2] = test system: K. pneumoniae ATCC BAA-2342; details: KPC strain
Description: as §1

[3] = test system: K. pneumoniae ATCC BAA-2470; details: NDM-1 strain
Description: as §1

E. coli DSM 46345 = test system: E. coli DSM 46345
Description: as §1

E. cloacae CIP 105879 = test system: E. cloacae CIP 105879
Description: as §1

E. cloacae ATCC BAA-2468 = details: NDM-1 strain
Description: as §1

NC(=O)OC[C@@H](O)C[C@H](NC(=O)[C@H]1NCCC[C@H]1O)C(=O)N[C@@H](Cc1c[nH]cn1)C(=O)N[C@H](C(=O)O)[C@H](O)c1cnc(Cl)[nH]1 [GE81112A]
Stability in the presence of glutathione (GSH) [1]: no degradation or formation of adducts
metabolised at 1 h, 1 μM (Plasma stability; human blood plasma, 37°C, 1 h, read-out: Hydrolysis): 3%
metabolised at 4 h, 1 μM (Plasma stability; human blood plasma, 37°C, 4 h, read-out: Hydrolysis): 27%
Degradation (Plasma stability; mouse blood plasma): No degradation
Degradation (Plasma stability; rat blood plasma): No degradation
Direct competitive inhibition of CYPA4 (CYP3A4): not observed
Time-dependent inhibition of CYPA4 (CYP3A4): not observed
MIC (P. mirabilis DSM4479; DMEM): 64 µg/mL (≈ 99.4 µM)
MIC (P. mirabilis DSM4479; MHII): >64 µg/mL
MIC (P. stuartii ATCC 29851; DMEM): >64 µg/mL
MIC (P. stuartii ATCC 29851; MHII): >64 µg/mL
MIC (E. coli ATCC BAA-2469; DMEM): >64 µg/mL
MIC (E. coli ATCC BAA-2469; MHII): >64 µg/mL
MIC (C. freundii ATCC 8090; DMEM): 32 µg/mL (≈ 49.7 µM)
MIC (C. freundii ATCC 8090; MHII): >64 µg/mL
MIC (E. coli ATCC BAA-2471; DMEM): 4 µg/mL (≈ 6.21 µM)
MIC (E. coli ATCC BAA-2471; MHII): >64 µg/mL
MIC (E. coli MG1655; DMEM): 1 µg/mL (≈ 1.55 µM)
MIC (E. coli MG1655; MHII): >64 µg/mL
MIC ([2]; DMEM): >64 µg/mL
MIC ([2]; MHII): >64 µg/mL
MIC ([3]; DMEM): >64 µg/mL
MIC ([3]; MHII): >64 µg/mL
MIC (E. coli DSM 46345; DMEM): >64 µg/mL
MIC (E. coli DSM 46345; MHII): >64 µg/mL
MIC (E. cloacae CIP 105879; DMEM): >64 µg/mL
MIC (E. cloacae CIP 105879; MHII): >64 µg/mL
MIC (E. cloacae ATCC BAA-2468; DMEM): >64 µg/mL
MIC (E. cloacae ATCC BAA-2468; MHII): >64 µg/mL
